# Experimental data published in paper PMC4172838 (Malaria Journal, 2014).
# Tests used:
# [1] = test system: T1, MRP2; assay: Vesicular transport assay, MRP2-mediated E217βG uptake in HEK293 membrane vesicles; type: biochemical, human; settings: 100 μM compound; E217βG 150 nM; solvent control = 100% transport
# T1 construct: made in house; host or cells: HEK293 cells transduced with baculovirus; isolated membrane vesicles
# Method: (§1) Human P-gp, BCRP, BSEP and MRP1-4 had previously been cloned into the Gateway pDONR221 vector. […] Gateway cloning was used to transfer the genes into a VSV-G improved pFastBacDual vector for mammalian cell transduction. The production of baculovirus was executed according to the Invitrogen Bac-to-Bac manual.
# (§2) HEK293 cells were grown to 40% confluency in Dulbecco’s modified Eagle’s medium-GlutaMAX-I containing 10% foetal calf serum at 5% CO2 in 500 cm^2 triple flasks. […]
# (§3) Cells were harvested three days post transduction by a 5-min centrifugation step at 3,000 g. […] Protein concentration in these vesicles was determined using the Bio-Rad protein assay, vesicles were flash-frozen in N2 and stored at -80°C.
# (§4) A rapid filtration technique that has been described earlier was applied to evaluate uptake of transporter specific substrates into the vesicles; NMQ for P-gp, E1S for BCRP, E217βG for MRP1-4 and TCA for BSEP [20]. […] Transport was allowed by transfer of the plates to 37°C during 1–5 min, a time-point within the linear phase of time-dependent transport, as previously determined. […] Radioactive signal on the filters was determined by liquid scintillation counting. […]
# (§5) In the first screen, all anti-malarial compounds were added to the reaction mixture to evaluate transport inhibition at a concentration of 100 μM. […] Results were depicted and statistically analysed using Graphpad Prism, version 5.03. […]
# [2] = test system: T2, bile salt export pump (BSEP/ABCB11); assay: Vesicular transport assay, BSEP-mediated taurocholic acid uptake in HEK293 membrane vesicles; type: biochemical, human; settings: 100 μM compound; taurocholic acid 1 μM; solvent control = 100% transport
# T2 construct: made in house; host or cells: HEK293 cells transduced with baculovirus; isolated membrane vesicles
# Method: Cells were harvested three days post transduction by a 5-min centrifugation step at 3,000 g. Cells were resuspended in ice-cold hypotonic buffer (0.5 mM sodium phosphate, 0.1 mM EDTA, pH 7.0) containing protease inhibitors (100 mM phenylmethylsulfonyl fluoride, 5 mg/ml aprotinin, 5 mg/ml leupeptin, 1 mg/ml pepstatin and 1 mg/ml E-64) and shaken at 4°C for 30 min. This lysate was centrifuged 100,000 xg for 30 min at 4°C, after which the pellet was homogenized in ice-cold TS buffer (10 mM Tris-HEPES and 250 mM sucrose, pH 7.4) supplemented with protease inhibitors described before using a tight-fitting Dounce homogenizer for 25 strokes. Two subsequent centrifugation steps at 4°C of firstly 20 min at 4,000 g followed by supernatant centrifugation for 60 min at 100,000 g ensured harvesting of the membrane fraction. The pellet was resuspended in ice-cold protease free TS buffer and passed 25 times through a 27-gauge needle to enhance membrane vesicle formation. Protein concentration in these vesicles was determined using the Bio-Rad protein assay, vesicles were flash-frozen in N2 and stored at -80°C.
# A rapid filtration technique that has been described earlier was applied to evaluate uptake of transporter specific substrates into the vesicles; NMQ for P-gp, E1S for BCRP, E217βG for MRP1-4 and TCA for BSEP [20]. Briefly, 0.015-0.15 μCi of labelled substrate was combined with unlabelled substrates to a concentration of 0.1-1 μM in a 30 μL reaction mixture with 4 mM ATP, 10 mM MgCl2 and 7.5 μg total protein membrane vesicles in TS buffer. Transport was allowed by transfer of the plates to 37°C during 1–5 min, a time-point within the linear phase of time-dependent transport, as previously determined [15–19]. Hereafter, the reaction was rapidly stopped by placing the plates back on ice and the addition of 150 μL ice-cold TS buffer. Samples were subsequently transferred to a 96-well filter plate that had been pre-incubated with TS buffer, and filtered using a multiscreen HTS-vacuum manifold filtration device (Millipore). […] Radioactive signal on the filters was determined by liquid scintillation counting. […]
# All concentrations were tested in duplicates or triplicates in two individual biological replicates containing vesicles of independent transductions. […] IC50 values were determined by nonlinear regression analysis of (log) inhibitor-response curves with variable slope. […]
# [3] = test system: T3, MRP3; assay: Vesicular transport assay, MRP3-mediated E217βG uptake in HEK293 membrane vesicles; type: biochemical, human; settings: 100 μM compound; E217βG 150 nM; solvent control = 100% transport
# T3 construct: made in house; host or cells: HEK293 cells transduced with baculovirus; isolated membrane vesicles
# Excerpt: Some sequences did hold silent mutations of described polymorphisms.
# [4] = test system: T4, MRP1; assay: Vesicular transport assay, MRP1-mediated E217βG uptake in HEK293 membrane vesicles; type: biochemical, human; settings: 100 μM compound; E217βG 150 nM; solvent control = 100% transport
# T4 construct: made in house; host or cells: HEK293 cells transduced with baculovirus; isolated membrane vesicles
# Method: as §1, §2, §3, §4, §5
# [5] = cited from earlier work
# [6] = biological target: T5, breast cancer resistance protein (BCRP/ABCG2) (Homo sapiens, UniProt Q9UNQ0); assay: Vesicular transport assay, BCRP-mediated estrone sulphate uptake in HEK293 membrane vesicles; settings: for BCRP-mediated estrone sulphate transport, percentage of solvent control: 100 μM compound, estrone sulphate 74 nM, solvent control = 100% transport
# T5 sequence (Q9UNQ0 1-655): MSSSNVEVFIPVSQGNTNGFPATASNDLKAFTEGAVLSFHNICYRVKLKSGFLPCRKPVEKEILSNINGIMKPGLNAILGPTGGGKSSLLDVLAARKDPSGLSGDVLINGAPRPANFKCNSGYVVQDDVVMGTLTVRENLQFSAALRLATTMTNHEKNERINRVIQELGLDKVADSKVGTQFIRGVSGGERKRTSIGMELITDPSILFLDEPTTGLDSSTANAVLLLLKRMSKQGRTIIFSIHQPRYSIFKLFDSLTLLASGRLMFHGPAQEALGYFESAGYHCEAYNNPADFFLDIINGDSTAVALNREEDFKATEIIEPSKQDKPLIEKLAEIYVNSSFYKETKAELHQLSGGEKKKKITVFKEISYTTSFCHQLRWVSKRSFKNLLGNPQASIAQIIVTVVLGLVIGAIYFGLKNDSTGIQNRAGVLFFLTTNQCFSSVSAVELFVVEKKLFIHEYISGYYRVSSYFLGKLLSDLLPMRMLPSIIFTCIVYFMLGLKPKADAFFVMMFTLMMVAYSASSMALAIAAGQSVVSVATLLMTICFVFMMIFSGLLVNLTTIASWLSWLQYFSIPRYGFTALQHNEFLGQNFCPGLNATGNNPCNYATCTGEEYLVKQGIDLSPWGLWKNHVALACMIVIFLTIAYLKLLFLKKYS
# Method: as §1
# (§6) HEK293 cells were grown to 40% confluency in Dulbecco’s modified Eagle’s medium-GlutaMAX-I containing 10% foetal calf serum at 5% CO2 in 500 cm^2 triple flasks. Culture medium was removed and 25 mL of medium combined with 10 mL virus was added and incubated at RT for 20 min, followed by the addition of another 40 mL of complete medium including 5 mM sodium butyrate to enhance protein expression.
# (§7) Cells were harvested three days post transduction by a 5-min centrifugation step at 3,000 g. Cells were resuspended in ice-cold hypotonic buffer (0.5 mM sodium phosphate, 0.1 mM EDTA, pH 7.0) containing protease inhibitors ([…] phenylmethylsulfonyl fluoride, 5 mg/ml aprotinin, 5 mg/ml leupeptin, 1 mg/ml pepstatin and 1 mg/ml E-64) and shaken at 4°C for 30 min. This lysate was centrifuged 100,000 xg for 30 min at 4°C, after which the pellet was homogenized in ice-cold TS buffer (10 mM Tris-HEPES and 250 mM sucrose, pH 7.4) supplemented with protease inhibitors described before using a tight-fitting Dounce homogenizer for 25 strokes. Two subsequent centrifugation steps at 4°C of firstly 20 min at 4,000 g followed by supernatant centrifugation for 60 min at 100,000 g ensured harvesting of the membrane fraction. The pellet was resuspended in ice-cold protease free TS buffer and passed 25 times through a 27-gauge needle to enhance membrane vesicle formation. Protein concentration in these vesicles was determined using the Bio-Rad protein assay, vesicles were flash-frozen in N2 and stored at -80°C.
# (§8) A rapid filtration technique that has been described earlier was applied to evaluate uptake of transporter specific substrates into the vesicles; NMQ for P-gp, E1S for BCRP, E217βG for MRP1-4 and TCA for BSEP [20]. Briefly, 0.015-0.15 μCi of labelled substrate was combined with unlabelled substrates to a concentration of 0.1-1 μM in a 30 μL reaction mixture with 4 mM ATP, 10 mM MgCl2 and 7.5 μg total protein membrane vesicles in TS buffer. Transport was allowed by transfer of the plates to 37°C during 1–5 min, a time-point within the linear phase of time-dependent transport, as previously determined. Hereafter, the reaction was rapidly stopped by placing the plates back on ice and the addition of 150 μL ice-cold TS buffer. Samples were subsequently transferred to a 96-well filter plate that had been pre-incubated with TS buffer, and filtered using a multiscreen HTS-vacuum manifold filtration device (Millipore). Filters were washed and extracted, after which 2 mL scintillation fluid was added to each filter. Radioactive signal on the filters was determined by liquid scintillation counting. Negative controls included eYFP-transduced vesicles and AMP instead of ATP in the reaction mixture.
# In the first screen, all anti-malarial compounds were added to the reaction mixture to evaluate transport inhibition at a concentration of 100 μM. […] When ATP-dependent uptake was reduced more than 66.7%, the compound was considered a potential inhibitor, and multiple concentrations were tested in the reaction mixture to determine the IC50 value. All concentrations were tested in duplicates or triplicates in two individual biological replicates containing vesicles of independent transductions. Results were depicted and statistically analysed using Graphpad Prism, version 5.03. IC50 values were determined by nonlinear regression analysis of (log) inhibitor-response curves with variable slope.
# [7] = biological target: P-glycoprotein (P-gp/ABCB1) (Homo sapiens, UniProt P08183); assay: Vesicular transport assay, P-gp-mediated NMQ uptake in HEK293 membrane vesicles; settings: for P-gp-mediated NMQ transport, percentage of solvent control: 100 μM compound, NMQ 7 nM radio-labelled + 90 nM unlabelled, solvent control = 100% transport
# Sequence of P-glycoprotein (P-gp/ABCB1) (P08183 whole entry): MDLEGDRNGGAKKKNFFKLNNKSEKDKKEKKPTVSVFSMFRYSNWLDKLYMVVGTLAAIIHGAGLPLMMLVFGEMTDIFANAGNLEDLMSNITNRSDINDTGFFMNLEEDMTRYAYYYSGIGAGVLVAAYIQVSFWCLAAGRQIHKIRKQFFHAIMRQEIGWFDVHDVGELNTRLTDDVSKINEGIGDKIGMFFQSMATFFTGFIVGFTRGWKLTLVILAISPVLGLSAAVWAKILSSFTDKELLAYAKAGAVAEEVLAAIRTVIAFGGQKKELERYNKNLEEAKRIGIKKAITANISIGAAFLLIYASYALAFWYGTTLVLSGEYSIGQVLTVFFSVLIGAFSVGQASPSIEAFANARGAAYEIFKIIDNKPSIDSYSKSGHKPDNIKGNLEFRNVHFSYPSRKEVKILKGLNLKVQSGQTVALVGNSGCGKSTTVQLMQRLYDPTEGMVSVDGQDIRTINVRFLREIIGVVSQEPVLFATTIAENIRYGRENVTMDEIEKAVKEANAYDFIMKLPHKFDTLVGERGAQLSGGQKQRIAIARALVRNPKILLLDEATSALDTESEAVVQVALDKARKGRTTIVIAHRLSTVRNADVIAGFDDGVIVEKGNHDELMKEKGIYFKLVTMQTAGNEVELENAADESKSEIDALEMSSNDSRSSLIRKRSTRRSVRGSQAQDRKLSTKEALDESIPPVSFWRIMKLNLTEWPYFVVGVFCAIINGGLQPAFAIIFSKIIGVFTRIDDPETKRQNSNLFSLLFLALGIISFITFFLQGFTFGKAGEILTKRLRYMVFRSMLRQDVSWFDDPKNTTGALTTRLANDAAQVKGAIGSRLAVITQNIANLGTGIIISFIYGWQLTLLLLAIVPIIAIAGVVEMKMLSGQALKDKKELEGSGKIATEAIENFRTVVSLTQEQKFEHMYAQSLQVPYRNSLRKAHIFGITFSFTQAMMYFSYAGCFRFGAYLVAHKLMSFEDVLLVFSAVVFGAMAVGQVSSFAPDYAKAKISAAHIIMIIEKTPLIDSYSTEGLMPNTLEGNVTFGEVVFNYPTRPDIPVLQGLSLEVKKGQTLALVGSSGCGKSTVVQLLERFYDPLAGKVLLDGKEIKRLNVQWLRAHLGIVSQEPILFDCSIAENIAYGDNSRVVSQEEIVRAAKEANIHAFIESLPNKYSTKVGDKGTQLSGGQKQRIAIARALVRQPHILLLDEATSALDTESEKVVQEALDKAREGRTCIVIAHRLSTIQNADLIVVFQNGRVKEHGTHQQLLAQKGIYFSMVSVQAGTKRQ
# Method: as §1, §6, §7, §8
# In the first screen, all anti-malarial compounds were added to the reaction mixture to evaluate transport inhibition at a concentration of 100 μM. […] Results were depicted and statistically analysed using Graphpad Prism, version 5.03. IC50 values were determined by nonlinear regression analysis of (log) inhibitor-response curves with variable slope.
# [8] = test system: BCRP; settings: cited from earlier work; for IC50: described as BCRP inhibitors, not substrates, read-out: IC50 of BCRP inhibition
# [9] = parameters: method as in PMID 21600016; settings: 12-hour measurement interval; co-administration with ATO/PG (250/100 mg) prophylaxis, one HIV patient; cited from earlier work
# [10] = daily prophylactic dose of 250 mg
compound,measurement,setting,value
"C[C@@H]1CC[C@H]2[C@@H](C)C(=O)O[C@@H]3O[C@@]4(C)CC[C@@H]1[C@]32OO4 [ART, artemisinin]","MRP2-mediated estradiol 17-β-D glucuronide transport, percentage of solvent control",[1],151%
same,"BSEP-mediated taurocholic acid transport, percentage of solvent control",[2],117%
same,"MRP3-mediated estradiol 17-β-D glucuronide transport, percentage of solvent control",[3],122%
"O=C1C(O)=C([C@H]2CC[C@H](c3ccc(Cl)cc3)CC2)C(=O)c2ccccc21 [ATO, atovaquone]","MRP2-mediated estradiol 17-β-D glucuronide transport, percentage of solvent control",[1],162%
same,"MRP1-mediated estradiol 17-β-D glucuronide transport, percentage of solvent control",[4],141%
same,Maximal blood plasma concentration,[5]; [10],around 14 μM
same,"Maximal blood plasma concentration, range",[5]; [10],8 to 26 µM
same,"BSEP-mediated taurocholic acid transport, percentage of solvent control",[2],54%
same,IC50,[6],0.23 µM
same,"BCRP-mediated estrone sulphate transport, percentage of solvent control",[6],22%
"CCN(CC)CCCC(C)Nc1ccnc2cc(Cl)ccc12 (stereo not shown) [CQ, chloroquine]","BCRP-mediated estrone sulphate transport, percentage of solvent control",[6],69%
same,"P-gp-mediated NMQ transport, percentage of solvent control",[7],50%
"C[C@H]1[C@@H](O)O[C@@H]2O[C@@]3(C)CC[C@H]4[C@H](C)CC[C@@H]1[C@@]24OO3 [DHA, dihydroartemisinin]","BSEP-mediated taurocholic acid transport, percentage of solvent control",[2],114%
same,"BCRP-mediated estrone sulphate transport, percentage of solvent control",[6],70%
same,"MRP3-mediated estradiol 17-β-D glucuronide transport, percentage of solvent control",[3],121%
same,"P-gp-mediated NMQ transport, percentage of solvent control",[7],112%
"CCCCN(CCCC)CC(O)c1cc(Cl)cc2c1-c1ccc(Cl)cc1/C2=C/c1ccc(Cl)cc1 (stereo not shown) [L, lumefantrine]","BCRP-mediated estrone sulphate transport, percentage of solvent control",[6],44%
"OC(c1cc(C(F)(F)F)nc2c(C(F)(F)F)cccc12)C1CCCCN1 (stereo not shown) [MQ, mefloquine]","MRP1-mediated estradiol 17-β-D glucuronide transport, percentage of solvent control",[4],50%
same,"BSEP-mediated taurocholic acid transport, percentage of solvent control",[2],72%
same,IC50,[6],18 µM
same,"BCRP-mediated estrone sulphate transport, percentage of solvent control",[6],8.5%
same,"MRP3-mediated estradiol 17-β-D glucuronide transport, percentage of solvent control",[3],70%
same,IC50,[7],72 µM
same,"P-gp-mediated NMQ transport, percentage of solvent control",[7],30%
"[H]/N=C(\N/C(=N/[H])Nc1ccc(Cl)cc1)NC(C)C [PG, proguanil]",IC50,[6],118 µM
same,"BCRP-mediated estrone sulphate transport, percentage of solvent control",[6],36%
same,"P-gp-mediated NMQ transport, percentage of solvent control",[7],76%
"C=C[C@H]1C[N@@]2CC[C@H]1C[C@H]2[C@H](O)c1ccnc2ccc(OC)cc12 [Q, quinine]",Maximal plasma concentration,[5]; seven-day regimen of 10 mg/kg oral dose three times daily of quinine sulphate,30 µM
COC(=O)N[C@H](C(=O)N[C@@H](Cc1ccccc1)[C@@H](O)CN(Cc1ccc(-c2ccccn2)cc1)NC(=O)[C@@H](NC(=O)OC)C(C)(C)C)C(C)(C)C [atazinavir],BCRP-mediated transport inhibition (in words),[8],inhibitors of BCRP-mediated transport
O=C1Nc2ccc(Cl)cc2[C@@](C#CC2CC2)(C(F)(F)F)O1 [efavirenz],BCRP-mediated transport inhibition (in words),[8],inhibitors of BCRP-mediated transport
Cc1cc(C#N)cc(C)c1Oc1nc(Nc2ccc(C#N)cc2)nc(N)c1Br [etravirine],Increase of AUC,[9],55%
same,IC50,[8],1 µM
Cc1cccc(C)c1OCC(=O)N[C@@H](Cc1ccccc1)[C@@H](O)C[C@H](Cc1ccccc1)NC(=O)[C@H](C(C)C)N1CCCNC1=O [lopinavir],BCRP-mediated transport inhibition (in words),[8],inhibitors of BCRP-mediated transport
Cc1nnc(C(=O)NC(C)(C)c2nc(C(=O)NCc3ccc(F)cc3)c(O)c(=O)n2C)o1 [raltegravir],BCRP inhibition (in words),[8],do not inhibit BCRP
CC(C)(C)NC(=O)[C@@H]1C[C@@H]2CCCC[C@@H]2CN1C[C@@H](O)[C@H](Cc1ccccc1)NC(=O)[C@H](CC(N)=O)NC(=O)c1ccc2ccccc2n1 [saquinavir],Increase of AUC,[9],274%
same,IC50,[8],19.5 µM
maraviroc,BCRP inhibition (in words),[8],do not inhibit BCRP
